Source: US20050031715A1, “Natural preservative comprising heated garlic extract and method for preparing thereof” (SEJONG UNIVERSITY, priority 2003, published 2005)

Tests used:
Type in all cases: cell-based
[1] = tested on: Candida utilis ATCC 42416; assay: Antimicrobial activity (log CFU/Ml) over pH condition; conditions: 30° C., 24 hrs
Description: Antimicrobial activity of the garlic extract heated at 121° C. for 120 min in Example 1 was measured for Candida utilis ATCC 42416, under various pH conditions. […] For a control, YMPGB medium without comprising any preservative was used. Candida utilis ATCC 42416 used in this Test Example was kindly provided from Dr. Henry P. Fleming at the Food Fermentation Laboratory of the North Carolina State University in USA. […] Then, Candida utilis ATCC 42416 was inoculated with an initial number of 2.1-2.3×10^5 CFU/mL and subsequently incubated at 30° C. for 24 hrs. After completing the incubation, the value of log CFU/Ml was measured by using the viable count method described above.

[2] = tested on: Candida utilis ATCC 42416; assay: Antimicrobial activity (MIC) over storage time at 37° C.; conditions: stored at 37° C., 30 days, heated extract: 121° C. for 120 min
Description: (§1) In order to compare the antibacterial activity and the antifungal activity of the garlic extract of Example 1 prepared by heating at 121° C., according to the heating time, MIC (minimum inhibitory concentration) was measured for the samples of the heated garlic extract. The MIC represents minimum concentration of material to inhibit the growth of certain type of microorganism. It is understood that the lower the MIC of a material, the higher the antimicrobial activity of the material. The inhibition of microbial growth was measured by viable count method based on Spiral Autoplate System of Spiral Biotech Inc. Three separate experiments were carried out for each sample and the highest value was taken as the MIC of the sample.
Antimicrobial activity of the garlic extract prepared by heating at 121° C. for 120 min in Example 1, the fresh garlic extract and the AITC solution was measured for Candida utilis ATCC 42416, over storage time. Candida utilis ATCC 42416 used in this Test Example was kindly provided from Dr. Henry P. Fleming at the Food Fermentation Laboratory of the North Carolina State University in USA. […] From the first day to the 30th day of the storage, the MIC was measured everyday or every two days using the viable count method described in Test Example 1.

[3] = tested on: Enterobacter aerogenes B146; assay: MIC, viable count method; conditions: 24 hrs, heated garlic: 121° C. for 45 min
Description: as §1
(§2) Antimicrobial activity was measured for the garlic extract heated at 121° C. for 45 min of Example 1, the fresh garlic extract and the AITC solution which had been prepared in Comparative Examples. Conditions for the viable count method, the medium and initial number of microorganisms inoculated were the same as those described in the above Test Examples. The MIC was measured at 24 hrs or 48 hrs after incubating the bacteria or the yeasts, respectively.
(§3) Staphylococcus aureus B33, Escherichia coli B34, Enterobacter aerogenes B146, Leuconostoc mesenteroides LA10, Pediococcus pentosaceus LA3, Lactobacillus plantarum LA97, Pichia membranifaciens Y20, Saccharomyces cerevisiae ATCC 4126 and Candida utilis ATCC 42416 used in this Test Example were kindly provided from Dr. Henry P. Fleming at the Food Fermentation Laboratory of the North Carolina State University in USA. Candida albicans HY1 was separated from an infant with oral candidiasis. In addition, Candida albicans KCTC 7121 and 7965 were purchased from Korean Collection for Type Cultures (KCTC) and Zygosaccharomyces bisporus KCCM 50168, Zygosaccharomyces rouxii (soya) KCCM 11300, Zygosaccharomyces rouxii KCCM 11303, Zygosaccharomyces rouxii (sake) KCCM 50523 and Zygosaccharomyces rouxii (gracilis) KCCM 50546 were obtained from KCCM (Korean Culture Center of Microorganisms).

[4] = tested on: Escherichia coli B34; assay: MIC, viable count method; conditions: 24 hrs, heated garlic: 121° C. for 45 min
Description: as §1, §2, §3

[5] = tested on: Saccharomyces cerevisiae ATCC 4126; assay: MIC, viable count method; conditions: 48 hrs, heated garlic: 121° C. for 45 min
Description: as §1, §2, §3

[6] = tested on: Pichia membranefaciens Y20; assay: MIC, viable count method; conditions: 48 hrs, heated garlic: 121° C. for 45 min
Description: as §1, §2, §3

[7] = tested on: Lactobacillus plantarum LA97; assay: MIC, viable count method; conditions: 24 hrs, heated garlic: 121° C. for 45 min
Description: as §1, §2, §3

[8] = tested on: Zygosaccharomyces bisporus KCCM 50168; assay: MIC, viable count method; conditions: 48 hrs, heated garlic: 121° C. for 45 min
Description: as §1, §2, §3

[9] = tested on: Staphylococcus aureus B33; assay: MIC, viable count method; conditions: 24 hrs, heated garlic: 121° C. for 45 min
Description: as §1, §2, §3

[10] = tested on: Leuconostoc mesenteroides LA10; assay: MIC, viable count method; conditions: 24 hrs, heated garlic: 121° C. for 45 min
Description: as §1, §2, §3

[11] = tested on: Pediococcus pentosaceus LA3; assay: MIC, viable count method; conditions: 24 hrs, heated garlic: 121° C. for 45 min
Description: as §1, §2, §3

[12] = tested on: Zygosaccharomyces rouxii KCCM 50523; assay: MIC, viable count method; conditions: 48 hrs, heated garlic: 121° C. for 45 min
Description: as §1, §2, §3

[13] = tested on: Candida albicans KCTC 7965; assay: MIC, viable count method; conditions: 48 hrs, heated garlic: 121° C. for 45 min
Description: as §1, §2, §3

[14] = tested on: Zygosaccharomyces rouxii KCCM 11303; assay: MIC, viable count method; conditions: 48 hrs, heated garlic: 121° C. for 45 min
Description: as §1, §2, §3

[15] = tested on: Candida utilis ATCC 42416; assay: MIC, viable count method; conditions: 48 hrs, heated garlic: 121° C. for 45 min
Description: as §1, §2, §3

[16] = tested on: Candida albicans (Clinical); assay: MIC, viable count method; conditions: 48 hrs, heated garlic: 121° C. for 45 min
Description: as §1, §2, §3

[17] = tested on: Zygosaccharomyces rouxii KCCM 50546; assay: MIC, viable count method; conditions: 48 hrs, heated garlic: 121° C. for 45 min
Description: as §1, §2, §3

[18] = tested on: Zygosaccharomyces rouxii KCCM 11300; assay: MIC, viable count method; conditions: 48 hrs, heated garlic: 121° C. for 45 min
Description: as §1, §2, §3

[19] = tested on: Candida albicans KCTC 7121; assay: MIC, viable count method; conditions: 48 hrs, heated garlic: 121° C. for 45 min
Description: as §1, §2, §3

In the case of `C/C=C/C=C/C(=O)[O-].[K+]` [potassium sorbate], the “antimicrobial activity, dependence on pH” value ([1]; pH 4 to 9, heated garlic extract (121° C., 120 min) 0.5 volume %, potassium sorbate 0.1 weight %) is reported as “significantly affected by pH”, the “antimicrobial activity at pH 5” value ([1]; pH 5, 0.1 weight %) is reported as “high” and the “antimicrobial activity at pH 6” value ([1]; pH 6, 0.1 weight %) is reported as “dropped to almost zero”.
In the case of `C=CCN=C=S` [AITC solution, allyl isothiocyanate], the “stability of antifungal activity over storage time” value [2] is reported as “very unstable”, the MIC [3] is reported as 0.02 ± 0.002 volume % and the MIC [4] is reported as 0.01 ± 0.0006 volume %. The MIC [5] was 0.0002 ± 0.0001 volume %, the MIC [6] was 0.0001 ± 0 volume % and the MIC [7] was 0.02 ± 0 volume %. The MIC [8] was 0.0002 ± 0 volume %, the MIC [9] was 0.015 ± 0.0006 volume % and the MIC [10] was 0.04 ± 0.0023 volume %. The MIC [11] was 0.02 ± 0.0012 volume %, the MIC [12] was 0.0005 ± 0.0001 volume % and the MIC [13] was 0.0004 ± 0.0001 volume %. It also gave an MIC [14] of 0.0004 ± 0.0001 volume %, an MIC [15] of 0.0004 ± 0.0001 volume % and an MIC [16] of 0.0003 ± 0 volume %. For the same compound, the MIC [17] was 0.0004 ± 0.0001 volume %, the MIC [18] was 0.0002 ± 0 volume % and the MIC [19] was 0.0003 ± 0.0001 volume %.
